Assay results published in patent US20070020716A1, “Coronary Endothelial Dysfunction” (priority 2005, published 2007).

Experiments:
[1] = system: coronary blood flow (left anterior descending coronary artery); assay: Microvascular endothelial function: change in coronary blood flow after intracoronary acetylcholine; format: in vivo, human; details: maximal dose of intracoronary acetylcholine, unadjusted
Description: (§1) After diagnostic angiography and exclusion of significant obstructive coronary artery disease, endothelium-dependent coronary vasoactivity was assessed as described elsewhere (Suwaidi et al., Circulation, 101:948-954 (2000) and Hasdai et al., Circulation, 96:3390-3395 (1997)). In brief, a Doppler guidewire (Flowire, Volcano Inc.) within a coronary-infusion catheter (Ultrafuse, SciMed Life System) was positioned into the midportion of the left anterior descending coronary artery. Intra-coronary acetylcholine at increasing concentrations of 10^−6, 10^−5, and 10^−4 M was infused to obtain effective coronary concentrations of 10^−8, 10^−7, and 10^−6 M, respectively. Each dose of acetylcholine was infused for three minutes through the infusion catheter into the left anterior descending coronary artery to assess endothelium dependent vasoreactivity. Hemodynamic data, Doppler measurements, and a coronary angiogram were obtained after each infusion. Coronary artery diameter was measured by an independent investigator in the segment 5 mm distal to the tip of the Doppler wire using a computer-based image analysis system. Average peak velocity (APV) was derived from the Doppler flow velocity spectra, and coronary blood flow (CBF) was determined as π(coronary artery diameter/2)^2×(APV/2). […] Endothelium-independent microvascular function was determined by the coronary flow reserve (CFR), which is the ratio of the APV at maximal hyperemia to the APV at baseline. […] Lp-PLA2 levels were measured in plasma aliquots, which were obtained at the time of coronary angiography and stored at −70° C., using an enzyme-linked immunoassay (PLAC™ test, diaDexus, Inc; Caslake et al., Atherosclerosis, 150:413-419 (2000)). […]
Microvascular endothelial function as determined by percentage change in coronary blood flow in response to the maximal dose of intracoronary acetylcholine was measured (FIG. 1). […]

[2] = system: coronary artery diameter (left anterior descending coronary artery); assay: Epicardial endothelial function: change in coronary artery diameter after intracoronary acetylcholine; format: in vivo, human; details: maximal dose of acetylcholine, unadjusted
Description: as §1
Epicardial endothelial function as determined by percentage change in coronary artery diameter in response to the maximal dose of acetylcholine was measured (FIG. 2). […]

[3] = patients in Lp-PLA2 Tertile 1 (110-181.4 ng/mL, N=57)
[4] = patients in Lp-PLA2 Tertile 2 (181.48-239.6 ng/mL, N=58)
[5] = patients in Lp-PLA2 Tertile 3 (240-443 ng/mL, N=57)

**Q.** How did the “percentage change in coronary blood flow” value [1, 3] turn out when `CC(=O)OCC[N+](C)(C)C` [acetylcholine] was run?
**A.** 78.4±15.2%

**Q.** What about the “percentage change in coronary blood flow” value [1, 4] of the same compound?
**A.** 63.8±73.2%

**Q.** And the “percentage change in coronary blood flow” value [1, 5]?
**A.** 32.0±71.7%

**Q.** And the “percentage change in coronary artery diameter” value [2, 3]?
**A.** −9.5±15.2%

**Q.** What about the “percentage change in coronary artery diameter” value [2, 4] of the same compound?
**A.** −14.1±14.7%

**Q.** And the “percentage change in coronary artery diameter” value [2, 5]?
**A.** −23.3±25.1%
